These results are taken from patent US7163946B2 (Ligand Pharmaceuticals Incorporated, priority 2002, dated 2007).

pEC50, pIC50: −log10 of the molar value.

Type in all cases: cell-based
Test [1] deals with T1, human estrogen receptor (hER) (Homo sapiens, UniProt P03372).
T1 sequence (P03372 1-595): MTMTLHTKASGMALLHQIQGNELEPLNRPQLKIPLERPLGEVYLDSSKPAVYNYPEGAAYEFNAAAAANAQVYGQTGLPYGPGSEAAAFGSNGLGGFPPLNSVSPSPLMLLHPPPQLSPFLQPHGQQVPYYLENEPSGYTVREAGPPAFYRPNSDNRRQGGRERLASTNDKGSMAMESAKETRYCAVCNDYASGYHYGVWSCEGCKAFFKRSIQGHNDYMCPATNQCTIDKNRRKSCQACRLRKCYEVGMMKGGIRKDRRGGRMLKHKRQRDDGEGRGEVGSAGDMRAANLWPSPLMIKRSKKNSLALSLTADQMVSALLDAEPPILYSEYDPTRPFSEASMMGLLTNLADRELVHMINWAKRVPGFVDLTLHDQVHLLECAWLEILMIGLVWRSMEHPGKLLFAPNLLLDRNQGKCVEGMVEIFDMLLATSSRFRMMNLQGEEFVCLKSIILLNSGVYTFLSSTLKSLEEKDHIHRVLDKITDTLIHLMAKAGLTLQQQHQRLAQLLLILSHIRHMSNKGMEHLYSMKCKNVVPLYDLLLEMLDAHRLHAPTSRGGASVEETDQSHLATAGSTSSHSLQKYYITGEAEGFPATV
The experiment in a line: hER cotransfection assay (potency ratio to hPR). The settings on record: receptor-selectivity potency ratio, cotransfection assays.
Procedure: (§1) Antagonist efficacy was determined as a function (%) of maximal inhibition of a reference agonist at EC50 concentration. All the cotransfection experiments were carried out in 96-well plates by automation (Beckman Biomomek automated workstation).

The target of test [2] is T2, hPR (Homo sapiens, UniProt P06401).
T2 sequence (P06401 679-933 limits assumed): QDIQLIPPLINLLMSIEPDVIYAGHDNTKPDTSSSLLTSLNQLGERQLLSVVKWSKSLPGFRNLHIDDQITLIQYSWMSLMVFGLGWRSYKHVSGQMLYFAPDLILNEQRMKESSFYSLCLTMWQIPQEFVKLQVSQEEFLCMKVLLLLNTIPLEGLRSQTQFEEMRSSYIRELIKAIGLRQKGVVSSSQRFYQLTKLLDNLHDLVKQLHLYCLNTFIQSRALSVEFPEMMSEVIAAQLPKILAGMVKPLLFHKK
The experiment in a line: T47D alkaline phosphatase assay, antagonist mode. Particulars: T47D human breast cancer cells; for Emax: read-out: hPR Antagonists T47D Cells Eff. (%); for pIC50: read-out: hPR Antagonists T47D Cells IC50.
Source text: (§2) The potential tissue-selectivities of the selected analogues were examined by using the T47D alkaline phosphatase assay that was developed from human breast cancer cells with endogenous PRs.

For another test, the target named is T3, hGR (Homo sapiens, UniProt P04150).
T3 sequence (P04150 1-777): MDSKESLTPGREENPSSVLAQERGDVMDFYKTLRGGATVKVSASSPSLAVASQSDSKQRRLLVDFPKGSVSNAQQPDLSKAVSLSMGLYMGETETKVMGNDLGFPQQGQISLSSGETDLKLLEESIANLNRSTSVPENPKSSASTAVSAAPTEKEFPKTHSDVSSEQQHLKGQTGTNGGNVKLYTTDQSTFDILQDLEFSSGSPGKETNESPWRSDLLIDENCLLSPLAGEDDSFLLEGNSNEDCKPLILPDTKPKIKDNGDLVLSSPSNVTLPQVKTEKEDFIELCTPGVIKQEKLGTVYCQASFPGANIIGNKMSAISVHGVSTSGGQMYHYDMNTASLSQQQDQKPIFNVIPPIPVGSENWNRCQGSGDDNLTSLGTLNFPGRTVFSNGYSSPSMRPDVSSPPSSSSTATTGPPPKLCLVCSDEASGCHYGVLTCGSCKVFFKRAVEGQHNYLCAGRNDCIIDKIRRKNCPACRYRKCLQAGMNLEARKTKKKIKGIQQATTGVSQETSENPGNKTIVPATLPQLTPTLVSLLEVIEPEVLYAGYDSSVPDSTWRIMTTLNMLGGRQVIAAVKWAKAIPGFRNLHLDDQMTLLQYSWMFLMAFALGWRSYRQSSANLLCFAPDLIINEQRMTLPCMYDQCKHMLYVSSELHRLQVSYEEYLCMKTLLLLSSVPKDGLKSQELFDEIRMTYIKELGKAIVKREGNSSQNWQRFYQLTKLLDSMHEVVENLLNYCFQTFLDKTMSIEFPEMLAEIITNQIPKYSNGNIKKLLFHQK
Kind of test: hGR cotransfection assay (potency ratio to hPR). Particulars: receptor-selectivity potency ratio, cotransfection assays.

Test [3] has as its target T4, human mineralocorticoid receptor (hMR) (Homo sapiens, UniProt P08235).
T4 sequence (P08235 1-984): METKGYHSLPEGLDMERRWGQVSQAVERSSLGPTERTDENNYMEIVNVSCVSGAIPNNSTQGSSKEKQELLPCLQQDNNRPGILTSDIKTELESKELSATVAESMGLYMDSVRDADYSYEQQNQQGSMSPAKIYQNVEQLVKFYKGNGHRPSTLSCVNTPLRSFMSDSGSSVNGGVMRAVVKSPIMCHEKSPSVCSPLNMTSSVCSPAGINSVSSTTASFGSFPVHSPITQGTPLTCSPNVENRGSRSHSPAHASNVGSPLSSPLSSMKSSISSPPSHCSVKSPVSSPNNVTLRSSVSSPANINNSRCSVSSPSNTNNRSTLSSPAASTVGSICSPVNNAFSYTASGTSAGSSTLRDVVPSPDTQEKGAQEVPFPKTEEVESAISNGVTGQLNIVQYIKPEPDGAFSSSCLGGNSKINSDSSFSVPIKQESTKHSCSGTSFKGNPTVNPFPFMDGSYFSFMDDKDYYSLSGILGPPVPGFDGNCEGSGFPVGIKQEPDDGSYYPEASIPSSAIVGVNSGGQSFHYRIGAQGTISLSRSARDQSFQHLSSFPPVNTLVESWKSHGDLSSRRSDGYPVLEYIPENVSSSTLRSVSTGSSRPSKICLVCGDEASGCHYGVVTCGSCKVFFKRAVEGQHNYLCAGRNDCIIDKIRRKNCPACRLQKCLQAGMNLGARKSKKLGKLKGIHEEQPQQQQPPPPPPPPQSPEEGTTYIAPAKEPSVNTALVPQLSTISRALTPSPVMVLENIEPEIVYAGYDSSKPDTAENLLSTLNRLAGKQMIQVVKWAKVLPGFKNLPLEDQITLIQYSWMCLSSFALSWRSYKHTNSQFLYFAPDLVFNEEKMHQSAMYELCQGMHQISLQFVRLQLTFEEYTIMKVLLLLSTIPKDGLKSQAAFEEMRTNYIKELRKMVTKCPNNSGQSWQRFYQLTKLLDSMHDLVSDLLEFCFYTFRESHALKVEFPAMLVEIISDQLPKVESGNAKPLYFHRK
The experiment in a line: hMR cotransfection assay (potency ratio to hPR). The settings on record: receptor-selectivity potency ratio, cotransfection assays.
Procedure: as §1

The target in test [4] is T2, hPR. Kind of test: T47D alkaline phosphatase assay, agonist mode. Particulars: T47D human breast cancer cells; for Emax: T47D, read-out: hPR Agonist T47D cells Eff. (%).
Source text: as §2

Procedure for hGR: as §1

Regarding `CC1=CC(C)(C)Nc2ccc3c(c21)/C(=C/c1cccc(F)c1)Oc1c(F)cc(F)cc1-3` [Compound 15, 7,9-difluoro-5(Z)-(3-fluorobenzylidene)-1,2-dihydro-2,2,4-trimethyl-5H-chromeno[3,4-f]quinoline], the “hER EC50 or IC50/hPR EC50” value in test [1] is given as above 1000. In addition, at hPR [2], the Emax was determined as 52% and the pIC50 is 6.15. For the same compound, the “hGR EC50 or IC50/hPR EC50” value on hGR came to 30. In test [3], the “hMR EC50 or IC50/hPR EC50” value is recorded as above 1000. Further, at hPR [4], the pEC50 is 7.72 and the Emax amounted to 56%.

Regarding `CC1=CC(C)(C)Nc2ccc3c(c21)C(c1ccccc1)Oc1c(F)cc(F)cc1-3` (racemic) [Compound 33, (±)-7,9-difluoro-5-phenyl-1,2-dihydro-2,2,4-trimethyl-5H-chromeno[3,4-f]quinoline], in test [1], the “hER EC50 or IC50/hPR EC50” value was above 1000. Also, on hPR [2], the Emax was below 20% and the pIC50 is below 5.00. Further, the “hGR EC50 or IC50/hPR EC50” value at hGR is on record as 10. The “hMR EC50 or IC50/hPR EC50” value in test [3] is given as above 1000. In addition, at hPR [4], the pEC50 was 7.46 and the Emax is 62%.

Consider `CC1=CC(C)(C)Nc2ccc3c(c21)/C(=C/c1cc(F)ccc1F)Oc1c(F)cc(F)cc1-3` [Compound 17, 7,9-difluoro-5(Z)-(2,5-difluorobenzylidene)-1,2-dihydro-2,2,4-trimethyl-5H-chromeno[3,4-f]quinoline], for which, in test [1], the “hER EC50 or IC50/hPR EC50” value is on record as above 1000. Moreover, at hPR [2], the Emax was 42% and the pIC50 is 6.41. Besides, on hGR, the “hGR EC50 or IC50/hPR EC50” value came to 66. Further, in test [3], the “hMR EC50 or IC50/hPR EC50” value is recorded as above 1000. For the same compound, on hPR [4], the pEC50 is 7.92 and the Emax worked out at 62%.

As for `CC1=CC(C)(C)Nc2ccc3c(c21)C(c1ccc(Cl)c(C)c1)Oc1c(F)cc(F)cc1-3` (racemic) [Compound 37, (±)-7,9-difluoro-5-(4-chloro-3-methylphenyl)-1,2-dihydro-2,2,4-trimethyl-5H-chromeno[3,4-f]quinoline], the “hER EC50 or IC50/hPR EC50” value in test [1] was above 1000. Further, at hPR [2], the Emax is 56% and the pIC50 is 6.82. Moreover, the “hGR EC50 or IC50/hPR EC50” value on hGR is on record as 54. Besides, the “hMR EC50 or IC50/hPR EC50” value in test [3] is on record as above 1000. In addition, on hPR [4], the pEC50 was 6.89 and the Emax is 50%.

As to `CC1=CC(C)(C)Nc2ccc3c(c21)C(c1cccc(C)c1)Oc1c(F)cc(F)cc1-3` (racemic) [Compound 34, (±)-7,9-difluoro-5-(3-methylphenyl)-1,2-dihydro-2,2,4-trimethyl-5H-chromeno[3,4-f]quinoline], the “hER EC50 or IC50/hPR EC50” value in test [1] is above 1000. Moreover, on hPR [2], the Emax turned out to be 47% and the pIC50 was 6.25. Also, the “hGR EC50 or IC50/hPR EC50” value at hGR was above 1000. In addition, in test [3], the “hMR EC50 or IC50/hPR EC50” value is above 1000. Further, on hPR [4], the pEC50 is 7.47 and the Emax came out at 60%.

Take `COc1ccc(F)cc1/C=C1\Oc2c(F)cc(F)cc2-c2ccc3c(c21)C(C)=CC(C)(C)N3` [Compound 26, 7,9-difluoro-5(Z)-(2-methoxy-5-fluorobenzylidene)-1,2-dihydro-2,2,4-trimethyl-5H-chromeno[3,4-f]quinoline]: the “hER EC50 or IC50/hPR EC50” value in test [1] is above 1000. Further, on hPR [2], the Emax amounted to 46% and the pIC50 is 6.21. Further, the “hGR EC50 or IC50/hPR EC50” value at hGR turned out to be 342. The “hMR EC50 or IC50/hPR EC50” value in test [3] is recorded as above 1000. In addition, at hPR [4], the pEC50 is 8.12 and the Emax worked out at 63%.

For `CC1=CC(C)(C)Nc2ccc3c(c21)C(c1cc2ccccc2s1)Oc1c(F)cc(F)cc1-3` (racemic) [Compound 63, (±)-7,9-difluoro-5-(benzo[b]thien-2-yl)-1,2-dihydro-2,2,4-trimethyl-5H-chromeno[3,4-f]quinoline], the “hER EC50 or IC50/hPR EC50” value in test [1] stood at 685. On hPR [2], the Emax is 49% and the pIC50 is 6.31. On hGR, the “hGR EC50 or IC50/hPR EC50” value is recorded as 8.8. Besides, in test [3], the “hMR EC50 or IC50/hPR EC50” value is given as above 1000. On hPR [4], the pEC50 is 7.70 and the Emax is 61%.

Turning to `CC1=CC(C)(C)Nc2ccc3c(c21)C(c1cccc(Cl)c1)Oc1c(F)cc(F)cc1-3` (racemic) [Compound 41, (±)-7,9-difluoro-5-(3-chlorophenyl)-1,2-dihydro-2,2,4-trimethyl-5H-chromeno[3,4-f]quinoline], the “hER EC50 or IC50/hPR EC50” value in test [1] was above 1000. Further, on hPR [2], the Emax came to 50% and the pIC50 is 6.87. Besides, the “hGR EC50 or IC50/hPR EC50” value at hGR was determined as 105. The “hMR EC50 or IC50/hPR EC50” value in test [3] came out at 905. On hPR [4], the pEC50 was 7.38 and the Emax was found to be 54%.

For `CC#CC1Oc2c(F)cc(F)cc2-c2ccc3c(c21)C(C)=CC(C)(C)N3` (racemic) [Compound 74, (±)-7,9-difluoro-5-(1-propynyl)-1,2-dihydro-2,2,4-trimethyl-5H-chromeno[3,4-f]quinoline], the “hER EC50 or IC50/hPR EC50” value in test [1] is above 1000. At hPR [2], the Emax was found to be 40% and the pIC50 was 7.28. Moreover, the “hGR EC50 or IC50/hPR EC50” value on hGR is above 1000. For the same compound, in test [3], the “hMR EC50 or IC50/hPR EC50” value is on record as above 1000. In addition, on hPR [4], the pEC50 is 8.34 and the Emax is 58%.

For `CC1=CC(C)(C)Nc2ccc3c(c21)/C(=C/c1ccncc1C)Oc1c(F)cc(F)cc1-3` [Compound 20, 7,9-difluoro-5(Z)-(3-methyl-4-picolylidene)-1,2-dihydro-2,2,4-trimethyl-5H-chromeno[3,4-f]quinoline], the “hER EC50 or IC50/hPR EC50” value in test [1] is above 1000. Besides, at hPR [2], the Emax is 59% and the pIC50 was 6.77. Also, on hGR, the “hGR EC50 or IC50/hPR EC50” value is listed as 27. The “hMR EC50 or IC50/hPR EC50” value in test [3] is listed as above 1000. Moreover, at hPR [4], the negative-log EC50 (pEC50) was 8.18 and the Emax turned out to be 63%.
